Measured values taken from the kinase profiling compilation of Christmann-Franck et al. (2016).

Tests used:
Experiment in all cases: radiometric filter-binding kinase assay
[1] = target: BRSK1 (human) (UniProt Q8TDC3)
[2] = target: BTK (human) (UniProt Q06187)
[3] = target: NUAK1 (human) (UniProt O60285)
[4] = target: RIPK2 (human) (UniProt O43353)
[5] = target: ERBB4 (human) (UniProt Q15303)
[6] = target: PRKACA (human) (UniProt P17612)
[7] = target: EPHA4 (human) (UniProt P54764)
[8] = target: INSR (human) (UniProt P06213); conditions: compound 1.0 µM
[9] = target: NEK6 (human) (UniProt Q9HC98)
[10] = target: MAPK15 (human) (UniProt Q8TD08)
[11] = target: PHKG1 (human) (UniProt Q16816)
[12] = target: CAMKK2 (human) (UniProt Q96RR4)
[13] = target: HIPK3 (human) (UniProt Q9H422)
[14] = target: MARK1 (human) (UniProt Q9P0L2)
[15] = target: MKNK1 (human) (UniProt Q9BUB5)
[16] = target: PRKCA (human) (UniProt P17252)
[17] = target: CDK2 CCNA2 (human) (UniProt P20248+P24941)
[18] = target: CaMK1 (human) (UniProt Q14012)
[19] = target: MST4 (human) (UniProt Q9P289)
[20] = target: JAK2 JH1 JH2 (human) (UniProt O60674)
[21] = target: PAK7 (human) (UniProt Q9P286)
[22] = target: MARK2 (human) (UniProt Q7KZI7)
[23] = target: MAPKAPK2 (human) (UniProt P49137); conditions: compound 1.0 µM
[24] = tested on: LCK (mouse); conditions: accession and sequence are those of the human protein
[25] = target: MAP2K1 (human) (UniProt Q02750)
[26] = target: NEK2 (human) (UniProt P51955)
[27] = target: INSRR (human) (UniProt P14616)
[28] = target: CSK (human) (UniProt P41240)
[29] = target: MINK1 (human) (UniProt Q8N4C8)
[30] = target: EPHB2 (human) (UniProt P29323)
[31] = tested on: PRKAA1 or PRKAA2 (rat); conditions: accession and sequence are those of the human protein
[32] = target: RPS6KA5 KD1 KD2 (human) (UniProt O75582)
[33] = target: EPHA2 (human) (UniProt P29317)
[34] = target: SRPK1 (human) (UniProt Q96SB4)
[35] = target: DYRK2 (human) (UniProt Q92630)
Sequence of DYRK2 (human) (Q92630 whole entry, looked up): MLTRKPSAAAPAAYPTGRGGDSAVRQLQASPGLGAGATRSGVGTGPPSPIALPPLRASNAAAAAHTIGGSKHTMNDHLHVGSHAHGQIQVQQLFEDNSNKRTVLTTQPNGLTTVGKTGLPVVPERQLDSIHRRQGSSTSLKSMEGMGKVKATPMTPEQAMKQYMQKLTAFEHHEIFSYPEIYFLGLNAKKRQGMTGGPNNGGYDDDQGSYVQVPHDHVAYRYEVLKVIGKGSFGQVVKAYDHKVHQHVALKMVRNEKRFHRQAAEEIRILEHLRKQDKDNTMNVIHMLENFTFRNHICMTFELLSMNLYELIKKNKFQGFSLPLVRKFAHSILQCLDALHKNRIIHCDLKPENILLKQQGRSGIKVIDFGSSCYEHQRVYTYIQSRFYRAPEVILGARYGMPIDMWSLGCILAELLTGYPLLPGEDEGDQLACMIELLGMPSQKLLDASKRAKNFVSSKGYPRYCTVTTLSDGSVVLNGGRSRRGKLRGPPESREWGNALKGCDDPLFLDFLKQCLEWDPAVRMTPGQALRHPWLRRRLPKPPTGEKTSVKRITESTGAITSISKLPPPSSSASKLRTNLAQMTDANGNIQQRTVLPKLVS

Sequence of CSK (human) (P41240 whole entry, looked up): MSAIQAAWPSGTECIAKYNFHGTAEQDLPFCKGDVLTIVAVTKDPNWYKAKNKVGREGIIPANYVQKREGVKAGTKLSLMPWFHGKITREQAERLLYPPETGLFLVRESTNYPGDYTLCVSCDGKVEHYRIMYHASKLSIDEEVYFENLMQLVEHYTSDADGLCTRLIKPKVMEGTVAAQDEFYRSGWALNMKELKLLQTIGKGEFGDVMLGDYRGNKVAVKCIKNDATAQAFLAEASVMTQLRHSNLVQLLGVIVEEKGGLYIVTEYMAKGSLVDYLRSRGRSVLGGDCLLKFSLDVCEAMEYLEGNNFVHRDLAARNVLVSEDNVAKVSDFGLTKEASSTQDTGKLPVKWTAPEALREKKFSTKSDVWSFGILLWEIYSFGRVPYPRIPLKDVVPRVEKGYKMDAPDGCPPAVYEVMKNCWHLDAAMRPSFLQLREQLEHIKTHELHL
Sequence of INSRR (human) (P14616 whole entry, looked up): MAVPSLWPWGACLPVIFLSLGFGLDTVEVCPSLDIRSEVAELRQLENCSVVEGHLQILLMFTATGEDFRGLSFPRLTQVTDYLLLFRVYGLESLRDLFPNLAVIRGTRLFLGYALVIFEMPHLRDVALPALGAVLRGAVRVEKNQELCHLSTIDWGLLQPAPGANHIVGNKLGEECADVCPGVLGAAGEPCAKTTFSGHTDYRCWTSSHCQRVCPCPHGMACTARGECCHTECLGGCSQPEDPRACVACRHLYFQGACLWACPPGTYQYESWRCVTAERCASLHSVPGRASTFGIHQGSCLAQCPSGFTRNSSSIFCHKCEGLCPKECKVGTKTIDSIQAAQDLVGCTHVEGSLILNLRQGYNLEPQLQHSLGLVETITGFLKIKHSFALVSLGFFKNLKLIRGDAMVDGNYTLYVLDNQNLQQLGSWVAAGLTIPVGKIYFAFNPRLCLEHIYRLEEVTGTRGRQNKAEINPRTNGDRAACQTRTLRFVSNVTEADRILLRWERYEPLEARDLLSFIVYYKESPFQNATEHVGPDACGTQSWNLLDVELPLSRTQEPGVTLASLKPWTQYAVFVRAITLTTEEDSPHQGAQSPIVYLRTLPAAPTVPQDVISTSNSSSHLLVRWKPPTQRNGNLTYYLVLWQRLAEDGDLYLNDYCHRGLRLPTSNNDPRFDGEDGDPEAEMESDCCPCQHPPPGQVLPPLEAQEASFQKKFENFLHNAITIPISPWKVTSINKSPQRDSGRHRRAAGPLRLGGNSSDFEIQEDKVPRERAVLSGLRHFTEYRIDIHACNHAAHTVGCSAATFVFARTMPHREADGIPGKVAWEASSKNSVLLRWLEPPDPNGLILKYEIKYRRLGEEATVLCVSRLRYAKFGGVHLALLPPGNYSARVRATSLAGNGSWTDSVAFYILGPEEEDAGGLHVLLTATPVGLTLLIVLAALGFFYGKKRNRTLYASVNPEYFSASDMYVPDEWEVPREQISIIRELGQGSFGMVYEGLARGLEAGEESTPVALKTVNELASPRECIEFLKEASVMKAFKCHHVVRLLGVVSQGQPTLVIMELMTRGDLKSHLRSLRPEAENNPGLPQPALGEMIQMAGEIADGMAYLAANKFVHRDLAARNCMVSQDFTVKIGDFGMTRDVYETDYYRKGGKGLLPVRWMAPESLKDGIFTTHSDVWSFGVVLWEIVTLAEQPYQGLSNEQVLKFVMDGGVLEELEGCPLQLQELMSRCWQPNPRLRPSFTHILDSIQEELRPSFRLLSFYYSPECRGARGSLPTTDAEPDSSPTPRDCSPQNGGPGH
Sequence of MINK1 (human) (Q8N4C8 whole entry, looked up): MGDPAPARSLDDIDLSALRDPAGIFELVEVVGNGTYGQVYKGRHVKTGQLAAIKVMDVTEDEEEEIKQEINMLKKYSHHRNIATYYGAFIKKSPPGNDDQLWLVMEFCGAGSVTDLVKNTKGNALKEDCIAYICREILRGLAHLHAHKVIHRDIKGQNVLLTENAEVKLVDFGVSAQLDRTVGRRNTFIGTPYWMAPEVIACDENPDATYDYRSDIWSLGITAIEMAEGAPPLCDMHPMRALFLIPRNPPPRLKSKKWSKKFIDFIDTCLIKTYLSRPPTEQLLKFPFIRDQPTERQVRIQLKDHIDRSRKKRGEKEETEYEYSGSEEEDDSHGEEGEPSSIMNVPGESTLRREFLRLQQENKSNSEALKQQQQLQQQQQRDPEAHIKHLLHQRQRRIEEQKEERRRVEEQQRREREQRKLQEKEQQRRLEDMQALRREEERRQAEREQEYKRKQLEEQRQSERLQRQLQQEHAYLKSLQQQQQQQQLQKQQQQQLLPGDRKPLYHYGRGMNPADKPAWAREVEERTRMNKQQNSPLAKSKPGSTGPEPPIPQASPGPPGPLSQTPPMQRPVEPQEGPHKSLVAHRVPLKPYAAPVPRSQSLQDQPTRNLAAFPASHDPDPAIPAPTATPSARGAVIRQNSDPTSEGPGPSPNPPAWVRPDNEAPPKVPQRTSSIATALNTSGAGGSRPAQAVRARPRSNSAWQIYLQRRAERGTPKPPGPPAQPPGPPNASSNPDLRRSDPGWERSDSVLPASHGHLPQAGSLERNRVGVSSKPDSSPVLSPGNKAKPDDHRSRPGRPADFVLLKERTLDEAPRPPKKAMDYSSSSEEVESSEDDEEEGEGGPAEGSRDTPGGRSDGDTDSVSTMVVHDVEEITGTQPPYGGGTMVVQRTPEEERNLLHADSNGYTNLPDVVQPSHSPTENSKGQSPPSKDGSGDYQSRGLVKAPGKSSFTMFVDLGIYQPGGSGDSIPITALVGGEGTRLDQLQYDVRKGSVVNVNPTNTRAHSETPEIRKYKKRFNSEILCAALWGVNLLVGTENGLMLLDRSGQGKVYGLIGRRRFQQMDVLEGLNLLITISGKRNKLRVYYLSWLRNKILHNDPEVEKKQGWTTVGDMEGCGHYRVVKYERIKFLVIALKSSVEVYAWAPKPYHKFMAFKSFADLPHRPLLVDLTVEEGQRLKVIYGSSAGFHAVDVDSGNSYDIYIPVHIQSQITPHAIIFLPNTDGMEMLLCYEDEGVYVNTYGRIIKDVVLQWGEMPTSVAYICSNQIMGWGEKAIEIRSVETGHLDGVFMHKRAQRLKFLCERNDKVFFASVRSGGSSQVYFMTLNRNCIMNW
Sequence of NUAK1 (human) (O60285 whole entry, looked up): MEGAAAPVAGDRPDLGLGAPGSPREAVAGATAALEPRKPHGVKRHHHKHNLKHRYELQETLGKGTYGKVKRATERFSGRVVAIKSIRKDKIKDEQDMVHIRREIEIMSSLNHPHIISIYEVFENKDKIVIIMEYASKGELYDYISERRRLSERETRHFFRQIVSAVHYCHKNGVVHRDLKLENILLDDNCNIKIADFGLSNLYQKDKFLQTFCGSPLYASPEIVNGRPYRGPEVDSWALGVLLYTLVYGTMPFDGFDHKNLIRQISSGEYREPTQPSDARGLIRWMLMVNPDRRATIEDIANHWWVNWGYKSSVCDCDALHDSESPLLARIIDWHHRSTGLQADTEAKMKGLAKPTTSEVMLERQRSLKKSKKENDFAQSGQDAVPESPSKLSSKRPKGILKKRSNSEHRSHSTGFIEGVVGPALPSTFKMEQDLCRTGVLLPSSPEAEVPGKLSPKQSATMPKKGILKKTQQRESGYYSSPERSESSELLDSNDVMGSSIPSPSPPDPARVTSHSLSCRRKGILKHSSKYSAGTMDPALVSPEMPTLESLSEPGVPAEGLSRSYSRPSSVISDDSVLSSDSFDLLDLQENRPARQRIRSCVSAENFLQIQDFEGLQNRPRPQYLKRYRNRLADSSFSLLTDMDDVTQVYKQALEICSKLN

CC1=C(CO)C(=O)O[C@@H]([C@@H](C)[C@H]2CC[C@H]3[C@@H]4C[C@H]5O[C@]56[C@@H](O)C=CC(=O)[C@]6(C)C4CC[C@]23C)C1 (stereo partly specified)
residual activity ([1]; compound 0.1 µM): 106%
residual activity ([1]; compound 1.0 µM): 111%
residual activity ([1]; compound 10.0 µM): 91%
residual activity ([2]; compound 0.1 µM): 118%
residual activity ([2]; compound 1.0 µM): 115%
residual activity ([2]; compound 10.0 µM): 110%
residual activity ([3]; compound 0.1 µM): 112%
residual activity ([3]; compound 1.0 µM): 121%
residual activity ([3]; compound 10.0 µM): 110%
residual activity ([4]; compound 0.1 µM): 95%
residual activity ([4]; compound 1.0 µM): 108%
residual activity ([4]; compound 10.0 µM): 110%
residual activity ([5]; compound 0.1 µM): 113%
residual activity ([5]; compound 1.0 µM): 109%
residual activity ([5]; compound 10.0 µM): 101%
residual activity ([6]; compound 0.1 µM): 112%
residual activity ([6]; compound 1.0 µM): 109%
residual activity ([6]; compound 10.0 µM): 113%
residual activity ([7]; compound 0.1 µM): 107%
residual activity ([7]; compound 1.0 µM): 98%
residual activity ([7]; compound 10.0 µM): 109%
residual activity [8]: 117%
residual activity ([9]; compound 1.0 µM): 102%
residual activity ([9]; compound 10.0 µM): 111%
residual activity ([10]; compound 1.0 µM): 115%
residual activity ([10]; compound 10.0 µM): 72%
residual activity ([11]; compound 0.1 µM): 110%
residual activity ([11]; compound 1.0 µM): 112%
residual activity ([11]; compound 10.0 µM): 105%
residual activity ([12]; compound 0.1 µM): 115%
residual activity ([12]; compound 1.0 µM): 115%
residual activity ([12]; compound 10.0 µM): 99%
residual activity ([13]; compound 0.1 µM): 96%
residual activity ([13]; compound 1.0 µM): 94%
residual activity ([13]; compound 10.0 µM): 58%
residual activity ([14]; compound 0.1 µM): 106%
residual activity ([14]; compound 1.0 µM): 115%
residual activity ([14]; compound 10.0 µM): 111%
residual activity ([15]; compound 0.1 µM): 98%
residual activity ([15]; compound 1.0 µM): 100%
residual activity ([15]; compound 10.0 µM): 108%
residual activity ([16]; compound 0.1 µM): 96%
residual activity ([16]; compound 1.0 µM): 111%
residual activity ([16]; compound 10.0 µM): 96%
residual activity ([17]; compound 0.1 µM): 108%
residual activity ([17]; compound 1.0 µM): 113%
residual activity ([17]; compound 10.0 µM): 117%
residual activity ([18]; compound 0.1 µM): 92%
residual activity ([18]; compound 1.0 µM): 84%
residual activity ([18]; compound 10.0 µM): 30%
residual activity ([19]; compound 0.1 µM): 97%
residual activity ([19]; compound 1.0 µM): 95%
residual activity ([20]; compound 0.1 µM): 98%
residual activity ([20]; compound 1.0 µM): 98%
residual activity ([20]; compound 10.0 µM): 103%
residual activity ([21]; compound 0.1 µM): 102%
residual activity ([21]; compound 1.0 µM): 116%
residual activity ([21]; compound 10.0 µM): 111%
residual activity ([22]; compound 0.1 µM): 109%
residual activity ([22]; compound 1.0 µM): 111%
residual activity ([22]; compound 10.0 µM): 118%
residual activity [23]: 56%
residual activity ([24]; compound 1.0 µM): 111%
residual activity ([24]; compound 10.0 µM): 129%
residual activity ([25]; compound 0.1 µM): 100%
residual activity ([25]; compound 10.0 µM): 111%
residual activity ([26]; compound 0.1 µM): 93%
residual activity ([26]; compound 1.0 µM): 94%
residual activity ([26]; compound 10.0 µM): 82%
residual activity ([27]; compound 0.1 µM): 99%
residual activity ([27]; compound 1.0 µM): 97%
residual activity ([27]; compound 10.0 µM): 77%
residual activity ([28]; compound 0.1 µM): 112%
residual activity ([28]; compound 1.0 µM): 109%
residual activity ([28]; compound 10.0 µM): 111%
residual activity ([29]; compound 0.1 µM): 94%
residual activity ([29]; compound 1.0 µM): 88%
residual activity ([29]; compound 10.0 µM): 81%
residual activity ([30]; compound 0.1 µM): 116%
residual activity ([30]; compound 1.0 µM): 102%
residual activity ([30]; compound 10.0 µM): 105%
residual activity ([31]; compound 0.1 µM): 99%
residual activity ([31]; compound 1.0 µM): 100%
residual activity ([31]; compound 10.0 µM): 90%
residual activity ([32]; compound 0.1 µM): 104%
residual activity ([32]; compound 1.0 µM): 101%
residual activity ([32]; compound 10.0 µM): 99%
residual activity ([33]; compound 0.1 µM): 94%
residual activity ([33]; compound 1.0 µM): 93%
residual activity ([33]; compound 10.0 µM): 96%
residual activity ([34]; compound 0.1 µM): 89%
residual activity ([34]; compound 1.0 µM): 86%
residual activity ([34]; compound 10.0 µM): 63%
residual activity ([35]; compound 0.1 µM): 97%
residual activity ([35]; compound 1.0 µM): 88%
residual activity ([35]; compound 10.0 µM): 104%
